Data on 24 molecules can be found in ChEMBL document CHEMBL1153102, “Synthesis and antiproliferative activity of pyrrolo[3,2-b]pyridine derivatives against melanoma” (Bioorg Med Chem Lett, 2010).

Test [1] in a line: Cytotoxicity against human A375P cells by MTT assay. Type of test: functional, cell-based.
Test [2] relates to HS27. Put plainly: Cytotoxicity against human HS27 cells by MTT assay. Format: cell-based.

As to `COC(=O)c1ccc2c(ccn2-c2ccc(NC(=O)c3cc(N4CCOCC4)cc(C(F)(F)F)c3)cc2)n1`, the IC50 in test [1] and in test [2] was above 10 µM each time.
On to `O=C(Nc1ccc(-n2ccc3nc(C(=O)NCc4ccccc4)ccc32)cc1)c1ccc(Cl)c(C(F)(F)F)c1`, for which the IC50 turned out to be 0.7 µM in test [1] and 1.5 µM in test [2].
`NC(=O)c1ccc2c(ccn2-c2ccc(NC(=O)Nc3ccc(Cl)c(Cl)c3)cc2)n1`: the figures for the IC50 in test [1] and in test [2] were 3.2 µM and 6.6 µM, respectively.
The matching figures for `NC(=O)c1ccc2c(ccn2-c2ccc(NC(=O)Nc3ccc(Cl)c(C(F)(F)F)c3)cc2)n1`: 9.9 µM and above 10 µM.
Consider `O=C(Nc1ccc(-n2ccc3nc(C(=O)NCc4ccccc4)ccc32)cc1)c1cccc(C(F)(F)F)c1`, for which the results for the IC50 in test [1] and in test [2] were 3 µM and above 10 µM, respectively.
The corresponding values for `COC(=O)c1ccc2c(ccn2-c2ccc(NC(=O)Nc3ccc(Cl)c(Cl)c3)cc2)n1` are 3.8 µM and 2.8 µM.
Regarding `COC(=O)c1ccc2c(ccn2-c2ccc(NC(=O)c3ccc(Cl)c(C(F)(F)F)c3)cc2)n1`, the concentration for half-maximal inhibition (IC50) is 3 µM in test [1] and 2.9 µM in test [2].
The corresponding values for `O=C(Nc1ccc(-n2ccc3nc(C(=O)NCc4ccccc4)ccc32)cc1)c1cc(N2CCOCC2)cc(C(F)(F)F)c1` are above 10 µM and above 10 µM.
Regarding `O=C(Nc1ccc(-n2ccc3nc(C(=O)NCc4ccccc4)ccc32)cc1)c1ccc(N2CCOCC2)c(C(F)(F)F)c1`, the IC50 in test [1] is 0.9 µM; in test [2] it was 2.6 µM.
The corresponding values for `COC(=O)c1ccc2c(ccn2-c2ccc(NC(=O)c3ccc(N4CCOCC4)c(C(F)(F)F)c3)cc2)n1` are 9.8 µM and above 10 µM.
The matching figures for `COC(=O)c1ccc2c(ccn2-c2cccc(NC(=O)c3ccc(Cl)c(C(F)(F)F)c3)c2)n1`: above 10 µM and above 10 µM.
Consider `COC(=O)c1ccc2c(ccn2-c2ccc(NC(=O)Nc3ccc(Cl)c(C(F)(F)F)c3)cc2)n1`, for which the half-inhibitory concentration (IC50) in test [1] stood at 3.6 µM; in test [2], 8.2 µM.
The matching figures for `O=C(Nc1ccc(-n2ccc3nc(C(=O)NCc4ccccc4)ccc32)cc1)Nc1cccc(Cl)c1Cl`: above 10 µM and above 10 µM.
The matching figures for `NC(=O)c1ccc2c(ccn2-c2ccc(NC(=O)Nc3cccc(Cl)c3Cl)cc2)n1`: 4.6 µM and 9.8 µM.
The corresponding values for `COC(=O)c1ccc2c(ccn2-c2ccc(NC(=O)Nc3cccc(Cl)c3Cl)cc2)n1` are 6.4 µM and above 10 µM.
For `COC(=O)c1ccc2c(ccn2-c2cccc(NC(=O)Nc3cccc(C(F)(F)F)c3)c2)n1`, the IC50 in test [1] and in test [2] was above 10 µM in each case.
In the case of `NC(=O)c1ccc2c(ccn2-c2ccc(NC(=O)c3cccc(C(F)(F)F)c3)cc2)n1`, the IC50 in test [1] and in test [2] was above 10 µM each time.
As to `O=C(Nc1ccc(-n2ccc3nc(C(=O)NCc4ccccc4)ccc32)cc1)Nc1ccc(Cl)c(C(F)(F)F)c1`, the IC50 in test [1] was 1.1 µM; in test [2] it was 3 µM.
Turning to `O=C(Nc1ccc(-n2ccc3nc(C(=O)NCc4ccccc4)ccc32)cc1)Nc1cccc(C(F)(F)F)c1`, the IC50 in test [1] was 7.9 µM; in test [2], above 10 µM.
The matching figures for `COC(=O)c1ccc2c(ccn2-c2cccc(NC(=O)Nc3ccc(Cl)c(C(F)(F)F)c3)c2)n1`: 9.5 µM and above 10 µM.
`NC(=O)c1ccc2c(ccn2-c2ccc(NC(=O)c3ccc(Cl)c(C(F)(F)F)c3)cc2)n1`: the figures for the IC50 in test [1] and in test [2] were 8.9 µM and above 10 µM, respectively.
As to `COC(=O)c1ccc2c(ccn2-c2ccc(NC(=O)c3cccc(C(F)(F)F)c3)cc2)n1`, the IC50 in test [1] is 9.5 µM; in test [2] it was 9.8 µM.
The corresponding values for `COC(=O)c1ccc2c(ccn2-c2cccc(NC(=O)c3cccc(C(F)(F)F)c3)c2)n1` are above 10 µM and above 10 µM.
On to `CNC(=O)c1cc(Oc2ccc(NC(=O)Nc3ccc(Cl)c(C(F)(F)F)c3)cc2)ccn1` [SORAFENIB], for which, in test [1], the IC50 is 5.6 µM.
